Results published in article PMC8868508, “Kassporin-KS1: A Novel Pentadecapeptide from the Skin Secretion of Kassina senegalensis: Studies on the Structure-Activity Relationships of Site-Specific “Glycine-Lysine” Motif Insertions” (Antibiotics, 2022).
In brackets after ≈: the same amount, converted by molar mass. Like-named read-outs stand apart in the source and are kept apart here. Where a SMILES comes first, the peptide text is derived from it.

Key:
[1] = system: E. coli NCTC 10418 biofilm; format: cell-based, Escherichia coli; conditions: NCTC 10418, 24 h
Protocol: (§1) As previously described, the MBIC and MBEC of the peptides against bacteria were determined. Staphylococcus aureus (S. aureus, NCTC 10788) and Escherichia coli (E. coli, NCTC 10418) was selected as representative strains. For the MBIC assay, the cultures were sub-cultured to their logarithmic growth phases. The diluted bacterial suspension was incubated with the peptide solution overnight in a 96-well plate. The resulting biofilm was washed with PBS solution, fixed with methanol, and dried. The biofilm was then stained with 0.1% (w/v) crystal violet, washed again with PBS, and dissolved in 30% acetic acid. The absorbance of the solution in each well at 595 nm was counted by the Synergy HT Microplate Spectrophotometer (Biotech, Minneapolis, MN, USA). Compared with the negative control, the lowest concentration that inhibits biofilm formation was MBIC. For the determination of MBEC, the diluted bacterial solution was incubated in the 96-well plate for 24 h, with 100 µL per well. Then, the biofilm was washed and re-incubated with 100 µL peptide-medium solution. After 24 h, the biofilm was again washed, stained, and dissolved as in the MBIC assay. Each well was detected at 595 nm by the same plate reader in MBIC. Compared with the negative control, the lowest concentration to eliminate biofilm was MBEC.

[2] = system: K. pneumoniae ATCC 43816; format: cell-based, Klebsiella pneumoniae
Protocol: (§2) The inhibition of representative microorganisms by peptides was evaluated by the modified broth dilution technique. The microorganisms included Candida albicans (C. albicans, NCTC 10231), Enterococcus faecalis (E. faecalis, NCTC 12697), Staphylococcus aureus (S. aureus, NCTC 10788), Klebsiella pneumoniae (K. pneumoniae, ATCC 43816), Methicillin-resistant Staphylococcus aureus (MRSA, ATCC 12493), Pseudomonas aeruginosa (P. aeruginosa, ATCC 27853), and Escherichia coli (E. coli, NCTC 10418).
(§3) Firstly, the selected microorganism was incubated in conical flasks with 100 mL Mueller Hinton broth (MHB) overnight. Then, the bacterial solution was sub-cultured in 20 mL MHB until it reached the logarithmic growth phase. Meanwhile, the peptide solution was prepared. The peptide was dissolved into 128 × 10^2 μM solution with phosphate-buffered saline (PBS) and then double-diluted into 64, 32, 16, 8, 4, 2, and 1 × 10^2 μM. Each sample solution and positive control ([…] Norfloxacin) was added to 96-well plates and divided into five replicates, 1 μL per well. The blank control was 100 µL MHB, and the growth control was 100 µL bacterial solutions. When the optical density (OD) value corresponding to the microbial concentration reached the value (Gram-positive bacteria: 0.23; Gram-negative bacteria: 0.4; fungi: 0.15) in their logarithmic growth phase, the microorganisms were diluted to the required concentration with MHB (Gram-negative and Gram-positive bacteria: 5 × 10^5 CFU/mL; fungi: 1 × 10^6 CFU/mL).
(§4) The diluted bacterial solution was then added to the 96-well plate at 99 µL per well. The plate was incubated at 37 °C and observed the next day. The MIC was the corresponding lowest peptide concentration without microbial growth. The absorbance of the 96-well plate at 550 nm was measured by Synergy HT Microplate Spectrophotometer (Biotech, Minneapolis, MN, USA), and the obtained values were quantitatively analyzed by Prism 7 software. Subsequently, the concentrations corresponding to the clear solution were removed from the 96-well plate in 10 µL and dropped onto the solidified MHA. The Petri dishes with MHA were cultured overnight, observed and the minimum peptide concentration without colonies was MBC.

[3] = system: S. aureus NCTC 10788 biofilm; format: cell-based, Staphylococcus aureus; conditions: NCTC 10788, 24 h
Protocol: as §1

[4] = system: C. albicans NCTC 10231; format: cell-based, Candida albicans
Protocol: as §2, §3, §4

[5] = system: P. aeruginosa ATCC 27853; format: cell-based, Pseudomonas aeruginosa
Protocol: as §2, §3, §4

[6] = system: E. faecalis NCTC 12697; format: cell-based, Enterococcus faecalis
Protocol: as §2, §3, §4

[7] = system: S. aureus NCTC 10788; format: cell-based, Staphylococcus aureus
Protocol: As mentioned in the previous study, the salt and pH sensitivities of AMPs exposed to physiological concentrations of salts or non-neutral environments were tested. MHB containing different ion concentrations (150 mM NaCl, 1 mM MgCl2, and 4 μM FeCl3) and MHB with pH 6.0 and pH 8.0 were prepared. The selected microorganism Staphylococcus aureus (S. aureus, NCTC 10788) was incubated overnight in the prepared medium, sub-cultured to the logarithmic phase, and then diluted to 5 × 10^5 CFU/mL. The subsequent steps were carried out as the MIC/MBC assay.

[8] = system: S. aureus NCTC 10788; format: cell-based, Staphylococcus aureus; remark: listed apart in the source
Protocol: as §2, §3, §4

[9] = system: MRSA NCTC 12493; format: cell-based, Methicillin-resistant Staphylococcus aureus
[10] = system: E. coli NCTC 10418; format: cell-based, Escherichia coli
Protocol: as §2, §3, §4

[11] = system: S. aureus infected Galleria mellonella larvae; conditions: in vivo
Protocol: Galleria mellonella larvae of equal weight were injected with bacterial suspensions to observe the peptides’ efficacy. First, the wax worm larvae were weighed (Livefood UK Ltd., Rooks Bridge, UK). The appropriate weight for the assay was 250 ± 25 mg. Then, S. aureus NCTC 10788 was cultured in sterilized saline until the bacterial suspension density reached 10^8 CFU/mL. […] Then, 10 µL peptide solutions were injected into the larvae at 6, 12, and 24 mg/kg. The positive control was the dosage of 20 mg/kg Vancomycin. The negative control was the administration of saline. In total, nine wax worms were included in each group. After being injected, the number of larvae deaths was recorded every 12 h until it reached 120 h.

Row | MIC [2] | MIC [4] | MIC [5] | MIC [6] | MIC [8] | MIC [9] | MIC [10] | SMILES | MBEC [1] | MBIC [1] | MBC [2] | MBEC [3] | MBIC [3] | MBC [4] | MBC [5] | MBC [6] | MBC [7] | MBC [8] | MBC [9] | MBC [10] | further results
1 | > 128 µM | 64 µM | > 128 µM | 128 µM | 32 µM | 64 µM (≈ 101 µg/mL) | 64 µM | CC[C@H](C)[C@H](NC(=O)[C@H](C)NC(=O)[C@H](CCC(=O)O)NC(=O)[C@H](CCCCN)NC(=O)CNC(=O)[C@H](CC(C)C)NC(=O)[C@H](C)NC(=O)[C@H](CC(C)C)NC(=O)[C@H](C)NC(=O)[C@H](CC(C)C)NC(=O)[C@@H](N)Cc1ccccc1)C(=O)N[C@@H](C)C(=O)N[C@@H](CCCCN)C(=O)N[C@@H](CC(C)C)C(=O)N[C@@H](CCCCN)C(N)=O [QUB-1585] (H-FLALALGKEAIAKLK-NH2) | 128/128 µM | 128/128 µM | > 128 µM | 128 µM | 64 µM | 128 µM | > 128 µM | > 128 µM | > 128 µM | 64 µM | 128 µM (≈ 203 µg/mL) | 128 µM | 
2 | > 128 µM | > 128 µM | > 128 µM | > 128 µM | > 128 µM | > 128 µM | > 128 µM | CC[C@H](C)[C@H](NC(=O)[C@H](C)NC(=O)[C@H](CCC(=O)O)NC(=O)[C@H](CCC(N)=O)NC(=O)[C@H](CCCCN)NC(=O)CNC(=O)[C@H](C)NC(=O)[C@H](CC(C)C)NC(=O)[C@H](C)NC(=O)[C@H](CC(C)C)NC(=O)[C@@H](N)Cc1ccccc1)C(=O)N[C@@H](C)C(=O)N[C@@H](CCCCN)C(=O)N[C@@H](CC(C)C)C(=O)N[C@@H](CCCCN)C(N)=O [QUB-1599] (H-FLALAGKQEAIAKLK-NH2) | >128/>128 µM | >128/>128 µM | > 128 µM | >128/>128 µM | >128/>128 µM | > 128 µM | > 128 µM | > 128 µM | > 128 µM | > 128 µM | > 128 µM | > 128 µM | MIC [7]: > 128 µM
3 | > 128 µM | > 128 µM | > 128 µM | 64 µM | 64 µM | 64 µM (≈ 105 µg/mL) | > 128 µM | CC[C@H](C)[C@H](NC(=O)[C@H](C)NC(=O)[C@H](CCC(=O)O)NC(=O)[C@H](CCC(N)=O)NC(=O)[C@@H](NC(=O)[C@H](CC(C)C)NC(=O)[C@H](C)NC(=O)[C@H](CC(C)C)NC(=O)[C@H](C)NC(=O)[C@H](CC(C)C)NC(=O)[C@@H](N)Cc1ccccc1)[C@@H](C)CC)C(=O)N[C@@H](C)C(=O)N[C@@H](CCCCN)C(=O)N[C@@H](CC(C)C)C(=O)N[C@@H](CCCCN)C(N)=O [QUB-1641] (H-FLALALIQEAIAKLK-NH2) | >128/>128 µM | >128/>128 µM | > 128 µM | 128/>128 µM | 128/>128 µM | > 128 µM | > 128 µM | 128 µM | > 128 µM | 64 µM | 128 µM (≈ 210 µg/mL) | > 128 µM | effect of injection on larvae [11]: causing the larvae to die directly after injection
